In PMC12164026, “Plant-derived nodule-specific cysteine-rich peptides as potent antifungal agents against Cryptococcus neoformans: mechanisms of action, chimeric peptide enhancement, and immunomodulatory effects” (Current Research in Microbial Sciences, 2025):
Converted amounts (≈) assume the structure as drawn. Where two headings read alike, the source gives them in different places. Peptide text beside a SMILES is read from it.

Assays:
[1] = tested on: Cryptococcus neoformans IFM 5844; assay: Minimal fungicidal concentration (MFC) determination, spotting on YPD; assay type: cell-based; conditions: cultures from MIC assays diluted and spotted onto solid YPD, 30 °C, 48 h
Protocol: Minimal fungicidal concentration (MFC) determination. To assess fungicidal activity, both control and peptide-treated cultures from the MIC assays were diluted 10-fold and 100-fold in sterile distilled water. Five µL from each dilution was then spotted onto solid YPD medium (1 % pepton, 1 % dextrose, 0.5 % yeast extract, 2 % agar). The plates were incubated at 30 °C for 48 h and fungal growth was evaluated. MFC was defined as the lowest peptide concentration at which no visible fungal growth was detected, indicating complete fungicidal activity.

[2] = tested on: C. neoformans IFM 5844 cells; assay: Cell membrane permeability, calcein-AM assay by flow cytometry; assay type: cell-based, Cryptococcus neoformans; conditions: half-MIC, 2 h, 30 °C, YNB
Protocol: The effect of the peptides on the cell membrane permeability of C. neoformans IFM 5844 cells was checked by flow cytometry with calcein-AM assay ([Olson, et al., 2001]). Calcein-acetoxymethyl ester (calcein-AM) is a membrane-permeable live-cell dye that, upon entering the cell, is cleaved by intracellular esterases, converting it into calcein, a membrane-impermeable fluorescent marker. The assay was carried out by suspending a total of 1 × 10^7 cells in 100 µl YNB medium containing 20 µg/mL indomethacin (Sigma-Aldrich, Saint Louis, MO, USA) and incubating them at 30 °C for 30 min to inhibit calcein transporters. Following this pre-treatment, membrane-permeable calcein-AM (Invitrogen, Waltham, MA, USA) was added to a final concentration of 5 µg/mL, and the samples were incubated at 30 °C for 3 h allowing the calcein-AM to enter the cells where esterases converted it to fluorescent calcein. After incubation, cells were washed twice with sterile distilled water and subsequently exposed to peptides at half-MIC concentrations in YNB medium for 2 h at 30 °C. Following peptide treatment, cells were washed twice with sterile distilled water, and fluorescence intensity was measured using a FlowSight® flow cytometer (Amnis-EMD Millipore) equipped with a 488-nm excitation laser. Intact cells stained with calcein-AM but not exposed to peptides served as controls. To ensure statistical reliability, four independent experiments were conducted, and fluorescence intensity was recorded from 10,000 cells per sample during each experiment.

[3] = tested on: J774.2 mouse macrophage cells; assay: Cytotoxicity, MTT assay; assay type: cell-based; conditions: 25 µM, 3 h, X-VIVO medium; for reduction in macrophage viability: relative to untreated control
Protocol: J774.2 cells were cultured as described previously and seeded into microtiter plates at a density of 5 × 10⁴ cells per well. The cells were incubated at 37 °C under 5 % CO₂ and 95 % relative humidity in X-VIVO™ medium until they adhered to the plate surface. Following attachment, cells were treated with peptides at their respective MIC concentrations in X-VIVO medium for 3 h under the same incubation conditions.
After peptide treatment, cells were washed with PBS (phosphate-buffered saline) and incubated in X-VIVO™ medium supplemented with 0.5 mg/mL MTT reagent (3-[4,5-dimethylthiazol-2-yl]−2,5-diphenyltetrazolium bromide, Merck KGaA, Darmstadt, Germany). The MTT assay was used to evaluate cell viability by staining live cells, leading to the formation of formazan crystals. These crystals were dissolved in dimethyl sulfoxide (DMSO), and absorbance was measured at 570 nm using a SPECTROstar Nano plate reader (BMG LabTech, Offenburg, Germany). The absorbance of untreated control cells was set as 100 % viability, and experimental results were expressed relative to this control. Each experiment was conducted in at least three independent biological replicates to ensure statistical reliability.

[4] = tested on: Cryptococcus neoformans IFM 5844; assay: microbe, parasite or virus in culture; assay type: cell-based; conditions: five-fold diluted YNB + 1 % dextrose, 5 × 10^4 cells/mL, 30 °C, 72 h, OD 620 nm, ≥ 90 % growth inhibition, tested 25 to 0.39 µM, three biological replicates; read-out: MIC
Protocol: (§1) The susceptibility of Cryptococcus neoformans IFM 5844 to 20 peptides (Supplementary Table 1) was tested in a widely used synthetic medium to cultivate yeasts (YNB) and in a serum-free medium what is able to support the proliferation of macrophage cells (X-VIVO).
YNB medium: five-fold diluted Difco Yeast Nitrogen Base w/o Amino Acids medium (Becton, Dickinson and Company, Sparks, MD, USA) supplemented with 1 % dextrose
(§2) The minimal inhibitory concentration (MIC) of each peptide was determined by using micro-dilution assay. The C. neoformans suspensions were adjusted to 5 × 10^4 cells/mL concentration in either YNB or X-VIVO medium. A 96-well microtiter plate was prepared by adding 95 µL suspension per well followed by 5 µL of serially two-fold diluted peptide solutions achieving a final volume of 100 µl. The concentration of the peptides ranged from 25 to 0.39 µM. For control samples, 5 µL pure medium was added to the yeast cell suspension instead of peptides. Plates were incubated at 37 °C for 48 h in X-VIVO medium and 30 °C for 72 h in YNB medium. After incubation, optical density was measured at 620 nm using a SPECTROstar Nano plate reader (BMG LabTech, Offenburg, Germany). […] The experiments were carried out in three independent biological replicates.

C. neoformans cells = assay: Effect of X1-NCR247C and calcofluor white on CFU; assay type: cell-based, Cryptococcus neoformans; conditions: calcofluor white 2.5 µg/mL alone, 20 min
Protocol: To assess the effect of X1-NCR247C peptide and calcofluor white, C. neoformans cells were subjected to different treatments. […] For staining, cells were treated with calcofluor white at 2.5 µg/mL for the same duration. As a control, cells were incubated only with calcofluor white for 20 min.
For combined treatment, cells were first exposed to calcofluor white (2.5 µg/mL) for 5 min, followed by the addition of X1-NCR247C (0.39 µM), and the incubation continued for 15 additional minutes. Following treatment, cells were washed once with sterile distilled water to remove residual peptide and dye. Serial 10-, 100-, 1000-, and 10,000-fold dilutions were prepared, and 50 µL from each dilution was plated onto solid YPD medium in triplicate. After 48 h of incubation at 30 °C, colony-forming units were counted to determine cell viability under each condition.

[5] = tested on: Cryptococcus neoformans IFM 5844; assay type: cell-based; conditions: half-diluted X-VIVO 15 medium, 37 °C, 48 h, OD 620 nm, ≥ 90 % growth inhibition, tested 25 to 0.39 µM, three biological replicates
Protocol: as §1
X-VIVO medium: half-diluted X-VIVO™ 15 cell culture medium (Lonza, Verviers, Belgium).
as §2

SMILES | fungistatic or fungicide mode of action [1] | calcein leakage / membrane permeability disruption [2] | reduction in macrophage viability [3] [%] | MIC [4] [µM] | further results
CC[C@H](C)[C@H](NC(=O)[C@@H]1CCCN1C(=O)[C@@H](NC(=O)[C@H](CS)NC(=O)[C@H](Cc1ccc(O)cc1)NC(=O)[C@H](CO)NC(=O)[C@H](CCCCN)NC(=O)[C@H](CCCNC(=N)N)NC(=O)[C@H](CS)NC(=O)[C@H](CCCNC(=N)N)NC(=O)[C@@H](NC(=O)[C@H](CC(N)=O)NC(=O)[C@H](C)NC(=O)[C@H](CCCNC(=N)N)NC(=O)[C@H](CCCNC(=N)N)NC(=O)[C@H](CC(C)C)NC(=O)[C@@H](N)CCCCN)C(C)C)C(C)C)C(N)=O [NCR335C17–33] (H-KLRRANVRCRKSYCVPI-NH2; N-terminus assumed) | fungicidal effect | highest calcein leakage | 15 |  | 
CC[C@H](C)[C@H](NC(=O)[C@H](CCCCN)NC(=O)[C@H](CCCCN)NC(=O)[C@H](C)NC(=O)[C@H](CC(C)C)NC(=O)[C@H](C)NC(=O)[C@H](C)NC(=O)[C@H](CC(C)C)NC(=O)[C@H](C)NC(=O)[C@H](CCCCN)NC(=O)[C@H](CC(C)C)NC(=O)[C@H](CC(N)=O)NC(=O)[C@@H](NC(=O)[C@H](CCCCN)NC(=O)CNC(=O)[C@H](CC(C)C)NC(=O)[C@H](CC(C)C)NC(=O)[C@H](Cc1ccc(O)cc1)NC(=O)CNC(=O)[C@H](C)N)[C@@H](C)CC)C(=O)N[C@@H](CC(C)C)C(N)=O [TP10, reference compound] |  |  |  | 12.5 | macrophage viability compared to untreated control ([3]; p ≤ 0.01): significantly reduced macrophage viability
O=S(=O)(O)c1cc(Nc2nc(Nc3ccccc3)nc(N(CCO)CCO)n2)ccc1/C=C/c1ccc(Nc2nc(Nc3ccccc3)nc(N(CCO)CCO)n2)cc1S(=O)(=O)O [calcofluor white, reference compound] |  |  |  |  | effect on CFU counts (C. neoformans cells): did not reduce CFU counts
CC[C@H](C)[C@H](NC(=O)[C@H](CS)NC(=O)CNC(=O)[C@H](CC(N)=O)NC(=O)[C@@H](N)CCCNC(=N)N)C(=O)N[C@H](C(=O)N[C@@H](CC(=O)O)C(=O)N1CCC[C@H]1C(=O)N[C@@H](CCCNC(=N)N)C(=O)N[C@@H](CS)C(=O)N1CCC[C@H]1C(=O)N[C@@H](Cc1ccc(O)cc1)C(=O)N[C@@H](CCC(N)=O)C(=O)N[C@@H](CCC(N)=O)C(=O)N[C@@H](CS)C(=O)N[C@@H](CCCNC(=N)N)C(=O)N[C@@H](CCCNC(=N)N)C(=O)N1CCC[C@H]1C(=O)N[C@@H](CC(C)C)C(=O)N[C@@H](Cc1ccc(O)cc1)C(=O)N[C@@H](CS)C(=O)N[C@@H](CCCNC(=N)N)C(=O)N[C@@H](CCCNC(=N)N)C(=O)N[C@@H](CCCNC(=N)N)C(N)=O)C(C)C [NCR247] (H-RNGCIVDPRCPYQQCRRPLYCRRR-NH2; N-terminus assumed) | fungicidal effect |  | 25 |  | 
CC[C@H](C)[C@H](NC(=O)[C@H](CCCCN)NC(=O)[C@H](CCCCN)NC(=O)[C@H](C)NC(=O)[C@H](CC(C)C)NC(=O)[C@H](C)NC(=O)[C@H](C)NC(=O)[C@H](CC(C)C)NC(=O)[C@H](C)NC(=O)[C@@H](N)CCCCN)C(=O)N[C@@H](CC(C)C)C(=O)N[C@@H](CCC(N)=O)C(=O)N[C@@H](CCC(N)=O)C(=O)N[C@@H](CS)C(=O)N[C@@H](CCCNC(=N)N)C(=O)N[C@@H](CCCNC(=N)N)C(=O)N1CCC[C@H]1C(=O)N[C@@H](CC(C)C)C(=O)N[C@@H](Cc1ccc(O)cc1)C(=O)N[C@@H](CS)C(=O)N[C@@H](CCCNC(=N)N)C(=O)N[C@@H](CCCNC(=N)N)C(=O)N[C@@H](CCCNC(=N)N)C(N)=O [X2-NCR247C] (H-KALAALAKKILQQCRRPLYCRRR-NH2; N-terminus assumed) | fungicidal effect | highest calcein leakage |  | 0.78 | MIC [5]: 3.12 µM (≈ 8.6 µg/mL)
